Consider five molecules from patent publication US20260297129A1, “PEPTIDES AS SELECTIVE IL-23 RECEPTOR INHIBITORS” (SANOFI, priority 2023, published 2026).

Molecules are shown by their SMILES. Converted amounts (≈) assume the structure as drawn. Where two headings read alike, the source gives them in different places. Numbered stars: 1 amine (or outer) side, 2 acyl side, 3 side chain; on linkers, the order of the positions; unused ones are H or OH. Bridge positions count the residues as written; N and C are the ends. Square brackets hold non-standard residues; d marks the D form. Peptide text beside a SMILES is read from it. * marks the point of attachment. Lys(Me,(CH2)4NMe(CH2)4CO) = CN(CCCCC(=O)[*:3])CCCCN(C)CCCC[C@H](N[*:1])C(=O)[*:2]; Trp(7-Me) = Cc1cccc2c(C[C@H](N)C(=O)O)c[nH]c12; NH(2-(3-pyridyl)ethyl) = c1cncc(CCN*)c1; Sebacoyl = O=C(CCCCCCCCC(=O)[*:2])[*:1]; NH(CH2)9CO = O=C(CCCCCCCCCN[*:1])[*:2]; 2Nal = N[C@@H](Cc1ccc2ccccc2c1)C(=O)O; X4 = O=C(CCCCCCCCCCCCCCCN[*:1])[*:2]; 3Pal = N[C@@H](Cc1cccnc1)C(=O)O; Lys(Me) = CNCCCC[C@H](N)C(=O)O; Thp = NC1(C(=O)O)CCOCC1; Me2NCH2CH2 = CN(C)CC*; Aib = CC(C)(N)C(=O)O; Aoc = NCCCCCCCC(=O)O; Sar = CNCC(=O)O Some results are limits rather than exact numbers.

Data set [1] in a line: Solubility of peptide compounds in buffer formulations (Table 5). Conditions: target 1 mg/ml. Type of data set: physicochemical. A digest of the protocol: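 Peptide solids, dried from DMSO stock, were taken up at 1 mg/mL in 50 mM HCl pH 1.2, or 50 mM phosphate pH 6.5 or pH 7.4. After 2 h gentle agitation and filtration (0.45 μm), solubility was determined by UHPLC-UV peak area against a DMSO standard of known concentration.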

In a further data set the target is T1, human IL-23R (Homo sapiens, UniProt Q5VWK5).
T1 sequence (Q5VWK5 24-353 limits assumed): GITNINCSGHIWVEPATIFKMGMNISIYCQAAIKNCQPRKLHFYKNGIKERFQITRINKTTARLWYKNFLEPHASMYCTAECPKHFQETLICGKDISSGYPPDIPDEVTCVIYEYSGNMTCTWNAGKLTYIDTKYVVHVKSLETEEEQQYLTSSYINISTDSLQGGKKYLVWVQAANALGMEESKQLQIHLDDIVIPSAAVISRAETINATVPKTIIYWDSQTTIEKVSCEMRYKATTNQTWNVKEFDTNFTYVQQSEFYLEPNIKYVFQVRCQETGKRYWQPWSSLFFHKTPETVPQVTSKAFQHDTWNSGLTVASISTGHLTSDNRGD
Nature of the data set: Inhibition of IL-23 binding to IL-23R as measured by ELISA (Table 8). Conditions: human IL23 coated 1 μg/ml; human IL-23R-Fc 0.1 μg/ml; 60 min; read-out: Human ELISA IL23/IL23R IC50. On the procedure: Antagonism of compounds for human interleukin-23 receptor inhibitors, was determined by an ELISA assay.
A 384-well plate was coated with 50 μl/well of human IL23 at a final concentration of 1 μg/ml and incubated overnight at 4° C. The wells were washed 3 times with 80 μl wash buffer and blocked with 80 μl blocking buffer for 60 minutes at room temperature and washed again. 20 μl of serially diluted test peptides was added to each well and subsequently 20 μl of recombinant human IL-23R-Fc chimera at final concentration of 0.1 μg/ml. The plate was incubated for 60 minutes at room temperature. After the wells were washed, bound IL23R-Fc was detected with goat anti-hu-IgG1-HRP antibody. Signals were visualized with QUANTABLU fluorogenic peroxidase substrate.
In general terms: In an ELISA, binding on a coated surface is turned into a signal by an enzyme label.

For data set [2], the system named is IL-23 induced STAT3 signaling (IL-23 receptor) in HEK-Blue IL-23 cells. The experiment in a line: Inhibition of IL-23 induced STAT3 signaling in HEK-Blue IL-23 cells, SEAP reporter (Table 9). Type of data set: cell-based. The conditions noted are these: human IL23 0.25 ng/ml, overnight, read-out: Inhibition of IL-23 induced pSTAT3 (IC50 nM). A digest of the protocol:
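HEK-Blue IL-23 reporter cells (10,000/well) pre-incubated 60 min at 37 °C with serially diluted peptides, then stimulated overnight with human IL-23 at 0.25 ng/ml final. SEAP in supernatant read by QUANTI-Blue, 45 min room temperature, OD 620–655 nm; dose-response curve fitting.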

Data set [3] can be described thus: Protease stability in simulated gastric fluids (FaSSGF) (Table 7). Type of data set: in vitro ADME. Conditions: fassgf with pepsin, 60 min, 37° C., read-out: Remaining percentage of peptide compound, FaSSGF 60 (min). Put shortly: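 Peptides at 1 μM final were incubated at 37 °C in simulated gastric fluid with pepsin (320 mg per 100 mL SGF concentrate). Samples were quenched with ethanol (0.1% HCOOH) at 0, 60, 120 and 240 min and analysed by LC-MS/MS. Percent remaining is the peak area relative to T0 (100%).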

A short description of data set [4]: Protease stability in simulated intestinal fluids (FaSSIF) (Table 7). Type of data set: in vitro ADME. The conditions noted are these: fassif with pancreatin, 37° C.; for remaining at 1 h, 1 µM: 60 min, read-out: Remaining percentage of peptide compound, FaSSIF 60 (min); for remaining at 2 h, 1 µM: 120 min, read-out: Remaining percentage of peptide compound, FaSSIF 120 (min); for remaining at 4 h, 1 µM: 240 min, read-out: Remaining percentage of peptide compound, FaSSIF 240 (min). A digest of the protocol:
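1 μM peptide incubated at 37° C in simulated fluid (pancreatin-SIF prepared from pancreatin in SIF concentrate). Samples quenched with acidified ethanol at 0, 60, 120 and 240 min and analysed by LC-MS/MS. Percentage remaining from peak area relative to T0 (100%).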

[5] abbreviates: Buffer pH 1.1 (head; method: 50 mM HCl pH 1.2), 2 h agitation, read-out: Solubility, Buffer pH 1.1.
Setting [6] is: aqueous buffer, 50 mM phosphate buffer pH 6.5, 2 h agitation, read-out: Solubility, Buffer pH 6.5.
[7] abbreviates: aqueous buffer, 50 mM phosphate buffer pH 7.4, 2 h agitation, read-out: Solubility, Buffer pH 7.4.

As usually defined, the solubility is how much of the substance goes into solution per volume. `Cc1cccc2c(C[C@@H]3NC(=O)CCCCN(C)CCCCN(C)CCCC[C@@H](C(=O)NCC(=O)NCCc4cccnc4)NC(=O)C(C)(C)NC(=O)[C@H](Cc4ccc5ccccc5c4)NC(=O)[C@H](Cc4ccc(OCCN(C)C)cc4)NC(=O)C4(CCOCC4)NC(=O)[C@H](CCC(N)=O)NC3=O)c[nH]c12` [compound 24] ([Trp(7-Me)]Q[Thp]Y(Me2NCH2CH2)[2Nal][Aib][Lys(Me,(CH2)4NMe(CH2)4CO)]G-{NH(2-(3-pyridyl)ethyl)}; lactam N-7): the solubility at 2 h in data set [1] (setting [5]) is at least 990 µg/mL; in data set [1] (setting [6]), at least 900 µg/mL; in data set [1] (setting [7]), at least 880 µg/mL. Besides, the figures for the IC50 (on human IL-23R; in data set [2]) were 0.84 nM and 6.95 nM, respectively.

What is called share remaining is the share of the starting amount still present when the sample was taken. `Cc1cccc2c(C[C@@H]3NC(=O)CCCCCCCCCNC(=O)CC[C@@H](C(=O)N[C@@H](CC(N)=O)C(=O)N[C@@H](Cc4cccnc4)C(=O)N(C)CC(N)=O)NC(=O)C(C)(C)NC(=O)[C@H](Cc4ccc5ccccc5c4)NC(=O)[C@H](Cc4ccc(OCCN(C)C)cc4)NC(=O)C4(CCOCC4)NC(=O)[C@H](CCC(N)=O)NC3=O)c[nH]c12` [compound 5] ([NH(CH2)9CO][Trp(7-Me)]Q[Thp]Y(Me2NCH2CH2)[2Nal][Aib]EN[3Pal][Sar]-NH2; lactam N-8): the results for the fraction remaining at 1 h, 1 µM in data set [3] and in data set [4] were 87% and 77%, respectively. In addition, the fraction remaining at 2 h, 1 µM in data set [4] was 74%. Besides, in data set [4], the amount remaining at 4 h, 1 µM is 70%. Moreover, the solubility at 2 h in data set [1] (setting [5]) is at least 1010 µg/mL; in data set [1] (setting [6]) it was 350 µg/mL (≈ 218 µM); in data set [1] (setting [7]), 170 µg/mL (≈ 106 µM). Besides, the IC50 amounted to 0.64 nM on human IL-23R and 0.26 nM in data set [2].

As for `Cc1cccc2c(C[C@@H]3NC(=O)CCCCCCCCC(=O)N(C)CCCC[C@@H](C(=O)N[C@@H](CC(N)=O)C(=O)N[C@@H](Cc4cccnc4)C(=O)N(C)CC(N)=O)NC(=O)C(C)(C)NC(=O)[C@H](Cc4ccc5ccccc5c4)NC(=O)[C@H](Cc4ccc(OCCN(C)C)cc4)NC(=O)C4(CCOCC4)NC(=O)[C@H](CCC(N)=O)NC3=O)c[nH]c12` [compound 19] ([Trp(7-Me)]Q[Thp]Y(Me2NCH2CH2)[2Nal][Aib][Lys(Me)]N[3Pal][Sar]-NH2; linker N-7 via Sebacoyl), the fraction remaining at 1 h, 1 µM in data set [3] is 97%; in data set [4] it was 80%. For the same molecule, the fraction remaining at 2 h, 1 µM in data set [4] is 78%. The fraction remaining at 4 h, 1 µM in data set [4] is 74%. For the same molecule, the solubility at 2 h in data set [1] (setting [5]) was at least 1390 µg/mL; in data set [1] (setting [6]), 120 µg/mL (≈ 73.6 µM); in data set [1] (setting [7]) it was 80 µg/mL (≈ 49.1 µM). Moreover, the figures for the IC50 (on human IL-23R; in data set [2]) were 0.63 nM and 0.24 nM, respectively.

For the molecule `Cc1cccc2c(C[C@@H]3NC(=O)CCCCCCCNC(=O)CC[C@@H](C(=O)N[C@@H](CC(N)=O)C(=O)N[C@@H](Cc4cccnc4)C(=O)N(C)CC(N)=O)NC(=O)C(C)(C)NC(=O)[C@H](Cc4ccc5ccccc5c4)NC(=O)[C@H](Cc4ccc(OCCN(C)C)cc4)NC(=O)C4(CCOCC4)NC(=O)[C@H](CCC(N)=O)NC3=O)c[nH]c12` [compound 6] ([Aoc][Trp(7-Me)]Q[Thp]Y(Me2NCH2CH2)[2Nal][Aib]EN[3Pal][Sar]-NH2; lactam N-8), the results for the amount remaining at 1 h, 1 µM in data set [3] and in data set [4] were 88% and 86%, respectively. Further, the amount remaining at 2 h, 1 µM in data set [4] was 77%. The share remaining at 4 h, 1 µM in data set [4] is 77%. Further, the solubility at 2 h was at least 1240 µg/mL in data set [1] (setting [5]), at least 1040 µg/mL in data set [1] (setting [6]) and at least 1090 µg/mL in data set [1] (setting [7]). In addition, the IC50 was found to be 0.67 nM on human IL-23R and 4.77 nM in data set [2].

As to `Cc1cccc2c(C[C@@H]3NC(=O)CCCCCCCCCCCCCCCNC(=O)CC[C@@H](C(=O)N[C@@H](CC(N)=O)C(=O)N[C@@H](Cc4cccnc4)C(=O)N(C)CC(N)=O)NC(=O)C(C)(C)NC(=O)[C@H](Cc4ccc5ccccc5c4)NC(=O)[C@H](Cc4ccc(OCCN(C)C)cc4)NC(=O)C4(CCOCC4)NC(=O)[C@H](CCC(N)=O)NC3=O)c[nH]c12` [compound 3] ([X4][Trp(7-Me)]Q[Thp]Y(Me2NCH2CH2)[2Nal][Aib]EN[3Pal][Sar]-NH2; lactam N-8), the share remaining at 1 h, 1 µM in data set [3] is 71%; in data set [4], 84%. For the same molecule, in data set [4], the fraction remaining at 2 h, 1 µM is 81%. Moreover, in data set [4], the fraction remaining at 4 h, 1 µM is 81%. Moreover, the figures for the solubility at 2 h in data set [1] (setting [5]), in data set [1] (setting [6]) and in data set [1] (setting [7]) were at least 990 µg/mL, below 10 µg/mL and below 10 µg/mL, respectively. Also, the IC50 at human IL-23R was found to be 1.33 nM; in data set [2] it was 9.92 nM.
